Data from BindingDB's records for PubMed 35324195 (Sichuan University, 2022).

Assay: Inhibition of IL-17 in human PBMC

IC50: 1.3 µM
SMILES: COc1cc(OC)c2c(=O)[nH]c(-c3cc(C)c(OCCN4CCCC4)c(C)c3)nc2c1
